These results are taken from paper PMC7544691, “Discovery of a novel EGFR ligand DPBA that degrades EGFR and suppresses EGFR-positive NSCLC growth” (Signal Transduction and Targeted Therapy, 2020).

For this assay, the target named is T1, Epidermal growth factor receptor (EGFR) (Homo sapiens, UniProt P00533).
T1 construct: extracellular domain (ECD), recombinant human
Kind of assay: MST with recombinant EGFR ECD (also BIAcore SPR, Kd […]; CETSA in A549 and H1975). The format is binding. A general note: SPR reads the build-up and loss of mass on a sensor chip optically.

T1 sequence (P00533 25-645 limits assumed): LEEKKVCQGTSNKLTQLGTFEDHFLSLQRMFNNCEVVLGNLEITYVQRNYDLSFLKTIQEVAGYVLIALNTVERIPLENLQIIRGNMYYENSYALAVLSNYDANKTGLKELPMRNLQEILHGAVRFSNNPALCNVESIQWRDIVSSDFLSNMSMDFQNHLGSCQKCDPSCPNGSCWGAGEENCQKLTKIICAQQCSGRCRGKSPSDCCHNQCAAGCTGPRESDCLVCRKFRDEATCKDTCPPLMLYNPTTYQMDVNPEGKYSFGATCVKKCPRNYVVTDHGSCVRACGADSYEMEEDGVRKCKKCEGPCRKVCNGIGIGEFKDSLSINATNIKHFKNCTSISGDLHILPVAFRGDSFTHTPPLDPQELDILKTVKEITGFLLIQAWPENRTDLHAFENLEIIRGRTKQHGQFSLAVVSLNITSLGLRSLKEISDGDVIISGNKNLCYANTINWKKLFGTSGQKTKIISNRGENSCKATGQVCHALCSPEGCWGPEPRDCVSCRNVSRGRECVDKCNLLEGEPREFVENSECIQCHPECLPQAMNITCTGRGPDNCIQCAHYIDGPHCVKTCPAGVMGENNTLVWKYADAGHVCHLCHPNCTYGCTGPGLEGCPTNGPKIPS

A word on the Kd: it is the equilibrium constant for the complex coming apart. With `C=C(C)[C@@H]1CC[C@]2(C(=O)N3CCC(N4CCCCC4)CC3)CC[C@]3(C)[C@H](CC[C@@H]4[C@@]5(C)CC[C@H](O)[C@@](C)(CO)[C@@H]5CC[C@]43C)[C@@H]12` [compound 187, DPBA], the dissociation constant (Kd) is 38.4 ± 1.75 µM.
